Source: patent publication EP4722207A1, “OXOISOINDOLINYL-SUBSTITUTED TETRAHYDROPYRIMIDINEDIONE DERIVATIVE AND USE THEREOF” (Gluetacs Therapeutics (Shanghai) Co., Ltd., priority 2023, dated 2024)

What was measured:
IKZF3 = biological target: T1, IKZF3 (Homo sapiens, UniProt Q96SW2+Q9UKT9); assay: Western-blot assay, substrate protein degradation in hPBMCs: IKZF3; format: cell-based; details: 24 hours of compound treatment, 50 nM and 500 nM
T1 construct: effects of the compounds of the present disclosure on the expression of target proteins in cells; endogenous in cells; host or cells: human PBMCs (hPBMCs)

IKZF1 = biological target: T2, IKZF1 (Homo sapiens, UniProt Q13422+Q96SW2); assay: Western-blot assay, substrate protein degradation in hPBMCs: IKZF1; format: cell-based; details: 24 hours of compound treatment, 50 nM and 500 nM
T2 construct: effects of the compounds of the present disclosure on the expression of target proteins in cells; endogenous in cells; host or cells: human PBMCs (hPBMCs)

CK1α = biological target: T3, CK1α (Homo sapiens, UniProt P48729+Q96SW2); assay: Western-blot assay, substrate protein degradation in hPBMCs: CK1α; format: cell-based; details: 24 hours of compound treatment, 50 nM and 500 nM
T3 construct: effects of the compounds of the present disclosure on the expression of target proteins in cells; endogenous in cells; host or cells: human PBMCs (hPBMCs)

GSPT1 = biological target: T4, GSPT1 (Homo sapiens, UniProt P15170+Q96SW2); assay: Western-blot assay, substrate protein degradation in hPBMCs: GSPT1; format: cell-based; details: 24 hours of compound treatment, 50 nM and 500 nM
T4 construct: effects of the compounds of the present disclosure on the expression of target proteins in cells; endogenous in cells; host or cells: human PBMCs (hPBMCs)

H292 = assay: Cell viability assay (CellTiter-Meiluncell Luminescent), tumor cell proliferation, H292; details: Homo sapiens, NCI-H292, 96 h; for inhibition at 0.01 µM: read-out: Inhibition Rate at 10 nM (%); for inhibition at 0.5 µM: read-out: Inhibition Rate at 500 nM (%)
IKZF2 = biological target: T5, IKZF2 (Homo sapiens, UniProt Q96SW2+Q9UKS7); assay: Western-blot assay, substrate protein degradation in hPBMCs: IKZF2; format: cell-based; details: 24 hours of compound treatment, 50 nM and 500 nM
T5 construct: effects of the compounds of the present disclosure on the expression of target proteins in cells; endogenous in cells; host or cells: human PBMCs (hPBMCs)

WEE1 = biological target: T6, WEE1 (Homo sapiens, UniProt P30291+Q96SW2); assay: Western-blot assay, substrate protein degradation in hPBMCs: WEE1; format: cell-based; details: 24 hours of compound treatment, 50 nM and 500 nM
T6 construct: effects of the compounds of the present disclosure on the expression of target proteins in cells; endogenous in cells; host or cells: human PBMCs (hPBMCs)
T6 sequence (P30291 whole entry): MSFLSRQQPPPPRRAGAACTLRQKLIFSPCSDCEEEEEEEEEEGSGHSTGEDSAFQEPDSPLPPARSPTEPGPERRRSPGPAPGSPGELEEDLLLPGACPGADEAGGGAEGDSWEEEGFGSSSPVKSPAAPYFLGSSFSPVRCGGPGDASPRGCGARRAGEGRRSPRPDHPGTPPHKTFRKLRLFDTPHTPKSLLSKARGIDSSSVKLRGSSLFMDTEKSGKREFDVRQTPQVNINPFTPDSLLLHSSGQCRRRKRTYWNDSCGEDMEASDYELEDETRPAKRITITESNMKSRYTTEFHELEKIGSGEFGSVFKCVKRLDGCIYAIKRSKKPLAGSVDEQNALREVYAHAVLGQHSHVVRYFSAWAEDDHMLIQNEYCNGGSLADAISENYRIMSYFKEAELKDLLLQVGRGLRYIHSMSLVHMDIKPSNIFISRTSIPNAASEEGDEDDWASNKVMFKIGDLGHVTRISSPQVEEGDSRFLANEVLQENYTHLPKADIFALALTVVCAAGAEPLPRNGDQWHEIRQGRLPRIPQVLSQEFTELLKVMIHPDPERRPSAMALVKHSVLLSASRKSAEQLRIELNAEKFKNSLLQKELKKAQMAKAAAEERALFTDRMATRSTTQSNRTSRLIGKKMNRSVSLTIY
T6 sequence (Q96SW2 whole entry): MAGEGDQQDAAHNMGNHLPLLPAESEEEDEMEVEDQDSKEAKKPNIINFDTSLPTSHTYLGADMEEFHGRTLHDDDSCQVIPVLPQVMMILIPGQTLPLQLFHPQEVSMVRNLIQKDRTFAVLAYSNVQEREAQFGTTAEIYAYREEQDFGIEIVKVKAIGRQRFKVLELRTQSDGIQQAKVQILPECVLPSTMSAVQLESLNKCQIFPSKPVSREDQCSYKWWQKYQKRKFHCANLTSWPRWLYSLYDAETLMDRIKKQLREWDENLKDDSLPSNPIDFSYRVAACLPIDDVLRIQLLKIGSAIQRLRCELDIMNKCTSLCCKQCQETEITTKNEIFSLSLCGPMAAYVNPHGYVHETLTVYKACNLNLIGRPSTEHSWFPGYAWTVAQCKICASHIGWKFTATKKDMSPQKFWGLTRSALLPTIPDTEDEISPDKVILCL
T6 sequence (Q16531 whole entry partner): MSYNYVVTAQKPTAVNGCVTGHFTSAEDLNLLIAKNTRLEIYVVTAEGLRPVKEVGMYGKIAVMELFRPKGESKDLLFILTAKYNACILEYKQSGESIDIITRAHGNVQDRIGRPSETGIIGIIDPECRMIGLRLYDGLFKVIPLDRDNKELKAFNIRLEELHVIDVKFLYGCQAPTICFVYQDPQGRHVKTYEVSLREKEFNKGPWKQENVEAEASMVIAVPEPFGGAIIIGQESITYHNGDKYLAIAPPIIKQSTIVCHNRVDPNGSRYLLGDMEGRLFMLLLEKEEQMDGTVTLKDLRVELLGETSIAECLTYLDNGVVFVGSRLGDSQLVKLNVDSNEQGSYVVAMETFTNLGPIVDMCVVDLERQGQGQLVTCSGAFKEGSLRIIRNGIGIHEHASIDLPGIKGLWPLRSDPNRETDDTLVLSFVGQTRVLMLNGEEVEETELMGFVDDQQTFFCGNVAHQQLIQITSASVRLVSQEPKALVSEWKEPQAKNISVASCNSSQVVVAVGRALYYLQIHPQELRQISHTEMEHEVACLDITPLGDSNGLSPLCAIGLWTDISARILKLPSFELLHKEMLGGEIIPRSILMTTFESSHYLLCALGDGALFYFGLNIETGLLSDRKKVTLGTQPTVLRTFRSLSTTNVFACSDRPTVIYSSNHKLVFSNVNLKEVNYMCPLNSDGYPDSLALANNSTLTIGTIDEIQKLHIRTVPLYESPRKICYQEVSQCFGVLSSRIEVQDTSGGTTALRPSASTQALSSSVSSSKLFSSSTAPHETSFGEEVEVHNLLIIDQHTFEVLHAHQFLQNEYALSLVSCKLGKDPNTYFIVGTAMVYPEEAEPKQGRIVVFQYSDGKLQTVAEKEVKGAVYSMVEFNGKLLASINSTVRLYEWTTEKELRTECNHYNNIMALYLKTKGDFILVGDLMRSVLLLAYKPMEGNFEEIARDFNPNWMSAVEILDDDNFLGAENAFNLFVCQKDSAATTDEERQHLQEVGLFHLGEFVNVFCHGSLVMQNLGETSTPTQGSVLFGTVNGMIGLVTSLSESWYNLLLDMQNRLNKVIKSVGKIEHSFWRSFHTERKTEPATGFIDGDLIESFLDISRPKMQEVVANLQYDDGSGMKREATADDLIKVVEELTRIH

T3 sequence (P48729 whole entry): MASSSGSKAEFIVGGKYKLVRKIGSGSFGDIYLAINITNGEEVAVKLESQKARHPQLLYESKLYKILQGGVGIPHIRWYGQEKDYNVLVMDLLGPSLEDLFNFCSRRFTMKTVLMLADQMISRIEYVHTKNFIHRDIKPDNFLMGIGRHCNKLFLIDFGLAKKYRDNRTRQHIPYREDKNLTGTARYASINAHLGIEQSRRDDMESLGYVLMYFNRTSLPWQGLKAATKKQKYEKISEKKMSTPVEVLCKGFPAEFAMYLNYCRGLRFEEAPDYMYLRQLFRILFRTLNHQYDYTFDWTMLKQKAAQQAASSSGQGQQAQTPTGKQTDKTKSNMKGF
T3 sequence (Q96SW2 whole entry): as the sequence (Q96SW2 whole entry) above
T3 sequence (Q16531 whole entry partner): as the sequence (Q16531 whole entry partner) above
T1 sequence (Q9UKT9 whole entry): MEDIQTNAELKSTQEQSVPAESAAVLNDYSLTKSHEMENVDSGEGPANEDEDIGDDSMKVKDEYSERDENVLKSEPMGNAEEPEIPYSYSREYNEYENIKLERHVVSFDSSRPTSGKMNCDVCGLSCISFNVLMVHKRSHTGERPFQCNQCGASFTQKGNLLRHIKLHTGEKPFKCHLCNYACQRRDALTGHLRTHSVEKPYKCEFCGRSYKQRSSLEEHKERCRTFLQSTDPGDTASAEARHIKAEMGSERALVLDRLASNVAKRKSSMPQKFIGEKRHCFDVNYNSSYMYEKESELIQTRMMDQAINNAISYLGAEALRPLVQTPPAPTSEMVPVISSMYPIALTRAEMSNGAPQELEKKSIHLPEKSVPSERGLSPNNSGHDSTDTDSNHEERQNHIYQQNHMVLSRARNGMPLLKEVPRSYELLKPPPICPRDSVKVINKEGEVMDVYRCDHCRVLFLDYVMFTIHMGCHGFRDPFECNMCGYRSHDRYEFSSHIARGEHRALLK
T1 sequence (Q96SW2 whole entry): as the sequence (Q96SW2 whole entry) above
T1 sequence (Q16531 whole entry partner): as the sequence (Q16531 whole entry partner) above
T2 sequence (Q13422 whole entry): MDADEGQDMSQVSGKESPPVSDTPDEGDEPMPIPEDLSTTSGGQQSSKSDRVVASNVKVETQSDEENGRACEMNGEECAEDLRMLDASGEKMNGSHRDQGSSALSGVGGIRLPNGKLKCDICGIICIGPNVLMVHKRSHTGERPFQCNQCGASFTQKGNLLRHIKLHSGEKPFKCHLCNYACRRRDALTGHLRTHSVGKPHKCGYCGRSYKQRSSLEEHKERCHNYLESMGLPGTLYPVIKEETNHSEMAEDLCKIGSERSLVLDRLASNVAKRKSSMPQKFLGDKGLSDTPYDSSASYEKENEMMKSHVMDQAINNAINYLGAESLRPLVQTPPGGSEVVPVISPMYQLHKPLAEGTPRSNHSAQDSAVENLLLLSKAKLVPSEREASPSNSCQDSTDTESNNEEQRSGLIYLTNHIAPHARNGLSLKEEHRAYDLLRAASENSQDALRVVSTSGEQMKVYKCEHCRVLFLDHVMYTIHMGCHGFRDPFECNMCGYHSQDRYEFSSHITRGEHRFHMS
T2 sequence (Q96SW2 whole entry): as the sequence (Q96SW2 whole entry) above
T2 sequence (Q16531 whole entry partner): as the sequence (Q16531 whole entry partner) above
T5 sequence (Q9UKS7 whole entry): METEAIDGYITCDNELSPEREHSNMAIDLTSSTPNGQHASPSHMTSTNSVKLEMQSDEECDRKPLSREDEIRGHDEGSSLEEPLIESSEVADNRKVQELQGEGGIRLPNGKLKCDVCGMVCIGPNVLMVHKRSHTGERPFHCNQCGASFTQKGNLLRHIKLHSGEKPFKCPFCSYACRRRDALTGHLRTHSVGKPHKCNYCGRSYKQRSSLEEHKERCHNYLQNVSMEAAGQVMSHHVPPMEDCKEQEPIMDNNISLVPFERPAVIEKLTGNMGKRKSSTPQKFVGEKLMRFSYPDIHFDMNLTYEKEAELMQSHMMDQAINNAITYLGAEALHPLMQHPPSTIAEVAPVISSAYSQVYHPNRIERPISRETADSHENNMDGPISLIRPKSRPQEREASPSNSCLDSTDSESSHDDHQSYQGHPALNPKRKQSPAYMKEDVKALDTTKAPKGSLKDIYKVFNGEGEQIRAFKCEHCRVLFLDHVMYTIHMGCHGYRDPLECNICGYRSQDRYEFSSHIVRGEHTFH
T5 sequence (Q96SW2 whole entry): as the sequence (Q96SW2 whole entry) above
T5 sequence (Q16531 whole entry partner): as the sequence (Q16531 whole entry partner) above

Row | SMILES | substrate protein remaining % IKZF3 (IKZF3) | substrate protein remaining % IKZF1 (IKZF1) | substrate protein remaining % CK1α (CK1α) | substrate protein remaining % GSPT1 (GSPT1) | inhibition at 0.01 µM (H292) [%] | inhibition at 0.5 µM (H292) [%] | substrate protein remaining % IKZF2 (IKZF2) | substrate protein remaining % WEE1 (WEE1)
1 | Cc1nc(C2=CCN(Cc3ccc4c(c3)C(=O)N(N3CCC(=O)NC3=O)C4=O)CC2)c2c3c(sc2n1)CCCC3 [GT-08432, 2-(2,4-dioxotetrahydropyrimidin-1(2H)-yl)-5-((4-(2-methyl-5,6,7,8-tetrahydrobenzo[4,5]thieno[2,3-d]pyrimidin-4-yl)-3,6-dihydropyridin-1(2H)-yl)methyl)isoindoline-1,3-dione] | A (0% ≤ substrate protein remaining % ≤ 80%) | B (80%< substrate protein remaining %≤ 100%) | A (0% ≤ substrate protein remaining % ≤ 80%) | A (0% ≤ substrate protein remaining % ≤ 80%) | 20 to 40 | 20 to 40 | B (80%< substrate protein remaining %≤ 100%) | B (80%< substrate protein remaining %≤ 100%)
2 | O=C1CCN(N2C(=O)c3ccc(CN4CC=C(c5ncnc6sc7c(c56)CCC7)CC4)cc3C2=O)C(=O)N1 [GT-08434, 5-((4-(6,7-dihydro-5H-cyclopenta[4,5]thieno[2,3-d]pyrimidin-4-yl)-3,6-dihydropyridin-1(2H)-yl)methyl)-2-(2,4-dioxotetrahydropyrimidin-1(2H)-yl)isoindoline-1,3-dione] | A (0% ≤ substrate protein remaining % ≤ 80%) | A (0% ≤ substrate protein remaining % ≤ 80%) | A (0% ≤ substrate protein remaining % ≤ 80%) | A (0% ≤ substrate protein remaining % ≤ 80%) | 20 to 40 | 15 to 20 | A (0% ≤ substrate protein remaining % ≤ 80%) | B (80%< substrate protein remaining %≤ 100%)
3 | Cc1nc(C2=CCN(Cc3ccc4c(c3)CN(N3CCC(=O)NC3=O)C4=O)CC2)c2c3c(sc2n1)CCC3 [GT-08437, 1-(5-((4-(2-methyl-6,7-dihydro-5H-cyclopenta[4,5]thieno[2,3-d]pyrimidin-4-yl)-3,6-dihydropyridin-1(2H)-yl)methyl)-1-oxoisoindolin-2-yl)dihydropyrimidine-2,4(1H,3H)-dione] | A (0% ≤ substrate protein remaining % ≤ 80%) | A (0% ≤ substrate protein remaining % ≤ 80%) | B (80%< substrate protein remaining %≤ 100%) | A (0% ≤ substrate protein remaining % ≤ 80%) | 20 to 40 | 15 to 20 | B (80%< substrate protein remaining %≤ 100%) | A (0% ≤ substrate protein remaining % ≤ 80%)
4 | O=C1CCN(N2Cc3cc(CN4CCN(c5nc(Cl)nc6c5SCC6)CC4)ccc3C2=O)C(=O)N1 [GT-08439, 1-(5-((4-(2-chloro-6,7-dihydrothieno[3,2-d]pyrimidin-4-yl)piperazin-1-yl)methyl)-1-oxoisoindolin-2-yl)dihydropyrimidine-2,4(1H,3H)-dione] | A (0% ≤ substrate protein remaining % ≤ 80%) | A (0% ≤ substrate protein remaining % ≤ 80%) | B (80%< substrate protein remaining %≤ 100%) | A (0% ≤ substrate protein remaining % ≤ 80%) | 20 to 40 | 20 to 40 | B (80%< substrate protein remaining %≤ 100%) | A (0% ≤ substrate protein remaining % ≤ 80%)
5 | O=C1CCN(N2Cc3cc(CN4CCN(c5ncnc6ccsc56)CC4)ccc3C2=O)C(=O)N1 [GT-08443, 1-(1-oxo-5-((4-(thieno[3,2-d]pyrimidin-4-yl)piperazin-1-yl)methyl)isoindolin-2-yl)dihydropyrimidine-2,4(1H,3H)-dione] | B (80%< substrate protein remaining %≤ 100%) | B (80%< substrate protein remaining %≤ 100%) | B (80%< substrate protein remaining %≤ 100%) | B (80%< substrate protein remaining %≤ 100%) | 20 to 40 | 40 to 60 | B (80%< substrate protein remaining %≤ 100%) | A (0% ≤ substrate protein remaining % ≤ 80%)
6 | O=C1CCN(N2C(=O)c3ccc(CN4CCN(c5nc(Cl)nc6c5SCC6)CC4)cc3C2=O)C(=O)N1 [GT-08448, 5-((4-(2-chloro-6,7-dihydrothieno[3,2-d]pyrimidin-4-yl)piperazin-1-yl)methyl)-2-(2,4-dioxotetrahydropyrimidin-1(2H)-yl)isoindoline-1,3-dione] | B (80%< substrate protein remaining %≤ 100%) | B (80%< substrate protein remaining %≤ 100%) | B (80%< substrate protein remaining %≤ 100%) | A (0% ≤ substrate protein remaining % ≤ 80%) | 20 to 40 | 20 to 40 | B (80%< substrate protein remaining %≤ 100%) | B (80%< substrate protein remaining %≤ 100%)
7 | O=C1CCN(N2C(=O)c3ccc(CN4CCN(c5nc6c(c(N7CCOCC7)n5)SCC6)CC4)cc3C2=O)C(=O)N1 [GT-08451, 2-(2,4-dioxotetrahydropyrimidin-1(2H)-yl)-5-((4-(4-morpholino-6,7-dihydrothieno[3,2-d]pyrimidin-2-yl)piperazin-1-yl)methyl)isoindoline-1,3-dione] | A (0% ≤ substrate protein remaining % ≤ 80%) | B (80%< substrate protein remaining %≤ 100%) | A (0% ≤ substrate protein remaining % ≤ 80%) | B (80%< substrate protein remaining %≤ 100%) | 15 to 20 | 20 to 40 | B (80%< substrate protein remaining %≤ 100%) | B (80%< substrate protein remaining %≤ 100%)
8 | O=C1CCN(N2C(=O)c3ccc(CN4CCN(c5ncnc6ccsc56)CC4)cc3C2=O)C(=O)N1 [GT-08452, 2-(2,4-dioxotetrahydropyrimidin-1(2H)-yl)-5-((4-(thieno[3,2-d]pyrimidin-4-yl)piperazin-1-yl)methyl)isoindoline-1,3-dione] | A (0% ≤ substrate protein remaining % ≤ 80%) | A (0% ≤ substrate protein remaining % ≤ 80%) | A (0% ≤ substrate protein remaining % ≤ 80%) | B (80%< substrate protein remaining %≤ 100%) | 20 to 40 | 5 to 10 | B (80%< substrate protein remaining %≤ 100%) | A (0% ≤ substrate protein remaining % ≤ 80%)
